According to patent US12357695B2, “Peptides and nanoparticles for intracellular delivery of molecules” (AADIGEN, LLC, priority 2019, dated 2025):
“Also recorded” adds a separate entry of the source. Square brackets hold non-standard residues; d marks the D form. Primed or numbered codes have the meaning given here. PEG7′ = (PEG)7 moiety; Ava = NCCCCC(=O)O; βAla = NCCC(=O)O

Columns and labels:
293T cells = test: Cellular delivery of pGL4 plasmid DNA expressing Luciferase, luciferase expression at 72 hrs; type: cell-based; conditions: for reduction of efficiency / luciferase expression in the presence of serum: complexes incubated 3 hrs in 25% serum prior transfection; for reduction of efficiency / luciferase expression in the presence of serum / reduction of efficiency / luciferase expression in heparan sulfate: pGL4 plasmid; for reduction of efficiency / luciferase expression in heparan sulfate: complexes incubated 3 hrs with heparan sulfate prior transfection
Method: FIGS. 2A-2C show luciferase expression in 293T cells treated with ADGN-peptide/pGL4 plasmid DNA complexes. 293T cells cultured in 48 well plates were transfected with ADGN-peptide nanoparticles. ADGN-100, ADGN-106, ADGN-100RI, ADGN-106RI, ADGN-100 Stearyl, ADGN-Hydro1, ADGN-Hydro2, ADGN-Hydro3, ADGN-Hydro4, ADGN-Hydro5, and ADGN-Hydro6 containing 0.17 μg pGL4 plasmid DNA were formed in sterile water, diluted in sterile water containing 5% Sucrose. ADGN-peptide nanoparticles were evaluated prior (FIG. 2A) and after filtration with 0.45 μm PES filters (FIG. 2B). FIG. 2C impact of peGylated ADGN-100 on the transfection efficiency. pGL4 luc plasmid (0.15 μg) were associated to ADGN-100 solution containing 5 to 50% of ADGN-100-PEG or to ADGN-100PEG. ADGN/pGL4 plasmid DNA complexes were incubated for 3 hrs in the presence of either 25% serum or heparan sulfate prior transfection. Luciferase expression was monitored 72 hours post transfection and results were reported as RLU (luminescence):mg of protein.
Complex formation with plasmid DNA. The following protocols were used for the transfection of 2-5 106 Cells or Cells at confluency of about 70-80% cultured in 24 well plates. ADGN peptide/plasmid DNA pGL4 particles were prepared at a 20:1 molar ratio of ADGN-Peptide/pGL4. using (0.2 μg). PGL4 plasmid (0.15 μg) was diluted in 20 μl of sterile water (GIBCO) at room temperature. 10 μl Final Peptide Solution was added to obtain a total volume of 20 μl. The volume was adjusted to 50 μl with sterile water and was mixed gently with vortex 1 min low speed and incubated 30 min at room temperature. Then the volume was made up to 100 μl by adding sterile water containing 5% sucrose, and the solution was mixed gently with vortex 1 min low speed and incubate 5 min at 37° C. and then was proceeded to cell transfection.
(§1) Transfection protocol. Protocol is reported for 24 well plate format. Cells were cultured in Dulbecco's Modified Eagle's Medium (DMEM), supplemented with 2 mM glutamine, 1% antibiotics (streptomycin 10,000 μg/mL, penicillin, 10,000 IU/mL) and 10% (w/v) foetal calf serum (FCS), at 37° C. in a humidified atmosphere containing 5% CO2. 24 well plates seeded with 150,000 cells the day prior to transfection were grown to 50-60% confluence and set up to be at about 70% confluences at the time of transfection. Before transfection, cells were washed twice with DMEM. Cells were then overlaid with 0.1 ml of ADGN-peptide/cargo complex solution containing 0.25 μg mRNA, 0.15 μg plasmid DNA or 10-25 nM siRNA, mixed gently, and incubated for 10 min at 37° C. 0.2 mL of fresh DMEM, were added and cells were incubated for 20 min at 37° C. 1 mL of complete DMEM containing 15% FCS were then added in order to reach a final FCS concentration of 10%, without removing the overlay of ADGN-peptide/cargo complexes. Cells were returned to the incubator (37° C., 5% CO2) and 72 hrs post transfection.
ADGN-peptides were evaluated for cellular delivery of pGL4 plasmid DNA expressing Luciferase in 293T cells. Luc pGL4 plasmid (0.15 μg) in sterile water (GIBCO) were mixed with ADGN-100, ADGN-100RI, ADGN-106, ADGN-106RI, ADGN-100 Stearyl, ADGN-100Hydro1, ADGN-100Hydro2, ADGN-100Hydro4, ADGN-100Hydro3, ADGN-100Hydro5 and ADGN-100Hydro6. ADGN-peptide/mRNA complexes were filtered with 0.45 μm PES filter. In order to evaluate the stability of the ADGN/pGL4 plasmid complexes in high serum and cell culture conditions, the complexes were incubated for 3 hrs in the presence of either 25% serum or heparan sulfate prior transfection, then 293T cells were transfected and Luciferase expression was monitored at 72 hrs.

A375/Luc cells = test: Cellular delivery of siRNA targeting Luciferase, luciferase silencing at 48 hrs; type: cell-based; conditions: 50% or 100% ADGN-100 PEG
Method: FIGS. 3A-3C show luciferase expression in A375/Luc cells treated with ADGN-peptide/siRNA complexes. A375/Luc cells cultured in 48 well plates were transfected with ADGN-peptide nanoparticles. ADGN-100, ADGN-106, ADGN-100RI, ADGN-106RI, ADGN-100 Stearyl, ADGN-Hydro1, ADGN-Hydro2, ADGN-Hydro3, ADGN-Hydro4, ADGN-Hydro5, ADGN-Hydro6 and ADGN-peptide/ADGN-100PEG 10% nanoparticles containing 10 nM or 25 nM siRNA were formed in sterile water, diluted in sterile water containing 5% Sucrose and filtered with 0.45 μm PES filters. FIG. 3C impact of peGylated ADGN-100 on the transfection efficiency. siRNA Luc (10 nM and 25 nM) were associated to ADGN-100 solution containing 5 to 50% of ADGN-100-PEG or to ADGN-100PEG. ADGN/siRNA complexes were incubated for 3 hrs in the presence of 25% serum prior transfection. Luciferase expression was monitored 48 hours post transfection and results were reported as RLU (luminescence):mg of protein.
Complex formation with siRNA. The following protocols were used for the transfection of 2-5 106 Cells or Cells at confluency of about 70-80% cultured in 24 well plates. ADGN peptide/siRNA Luc particles were prepared at a 20:1 molar ratio of ADGN-Peptide/pGL4. using 20 nM siRNA. The siRNA duplex (10 and 25 nM) was diluted in 20 μl of sterile water (GIBCO) at room temperature. 1.5 or 3 μl of a Final Peptide Solution (55 μM) was added to obtain a total volume of 20 μl. The volume was adjusted to 50 μl with sterile water and was mixed gently with vortex 1 min low speed and incubated 30 min at room temperature. Then the volume was made up to 100 μl by adding sterile water containing 5% sucrose, and the solution was mixed gently with vortex 1 min low speed and incubate 5 min at 37° C. and then was proceeded to cell transfection.
as §1
ADGN-peptides were evaluated for cellular delivery of siRNA duplex targeting Luciferase in A375/Luc cells. siRNA targeting luciferase (10 and 25 nM) in sterile water (GIBCO) were mixed with ADGN-100, ADGN-100RI, ADGN-106, ADGN-106RI, ADGN-100 Stearyl, ADGN-100Hydro1, ADGN-100Hydro2, ADGN-100Hydro4, ADGN-100Hydro3, ADGN-100Hydro5 and ADGN-100Hydro6. ADGN-peptide/siRNA complexes were filtered with 0.45 μm PES filter. In order to evaluate the stability of the ADGN/siRNA complexes in high serum conditions, the complexes were incubated for 3 hrs in the presence of 25% serum, then A375/Luc cells were transfected and Luciferase expression was monitored at 48 hrs.

mice or rat models = test: Summary of cargo delivery to targeted organ (Table 1); type: in vivo; conditions: cargoes and route (IV, IM, SQ, NB) per peptide as listed in Table 1
Text: Table 1 lists a summary of cell-penetrating peptides that have been proven successful in delivering various cargo molecules to on or more targeted organ (e.g., by intravenous (IV), intramuscular (IM), or subcutaneous (SQ) administration, or intratraccheal instillation or nebulization (NB)) in mice or rat models.

| Substance | reduction of level of Luciferase expression (293T cells; 50% or 100% ADGN-100 PEG, pGL4 plasmid 0.15 μg) | reduction of transfection efficiency (A375/Luc cells) | reduction of efficiency / luciferase expression in the presence of serum (293T cells) | reduction of efficiency / luciferase expression in heparan sulfate (293T cells) | Targeted Organ (mice or rat models) |
| --- | --- | --- | --- | --- | --- |
| Ac-(PEG)7-βA-KWRSALWRWRLWRVRSWSR-NH2 ({Ac-PEG7′}-[βAla]KWRSALWRWRLWRVRSWSR-NH2) [ADGN-100-PEG7] | 80% | 80% | – | – | – |
| Ac-GYVS-Ava-KWRSALWRWRLWRVRSWSR-NH2 (Ac-GYVS[Ava]KWRSALWRWRLWRVRSWSR-NH2; SMILES CC(=O)NCC(=O)N[C@@H](Cc1ccc(O)cc1)C(=O)N[C@H](C(=O)N[C@@H](CO)C(=O)NCCCCC(=O)N[C@@H](CCCCN)C(=O)N[C@@H](Cc1c[nH]c2ccccc12)C(=O)N[C@@H](CCCNC(=N)N)C(=O)N[C@@H](CO)C(=O)N[C@@H](C)C(=O)N[C@@H](CC(C)C)C(=O)N[C@@H](Cc1c[nH]c2ccccc12)C(=O)N[C@@H](CCCNC(=N)N)C(=O)N[C@@H](Cc1c[nH]c2ccccc12)C(=O)N[C@@H](CCCNC(=N)N)C(=O)N[C@@H](CC(C)C)C(=O)N[C@@H](Cc1c[nH]c2ccccc12)C(=O)N[C@@H](CCCNC(=N)N)C(=O)N[C@H](C(=O)N[C@@H](CCCNC(=N)N)C(=O)N[C@@H](CO)C(=O)N[C@@H](Cc1c[nH]c2ccccc12)C(=O)N[C@@H](CO)C(=O)N[C@@H](CCCNC(=N)N)C(N)=O)C(C)C)C(C)C) [ADGN-100 hydro-4] | – | – | do not significantly improved transfection | do not significantly improved transfection | Liver/Lung/; also recorded: Kidney/Spleen |
| Ac-YIGSR-Ava-KWRSALWRWRLWRVRSWSR-NH2 (Ac-YIGSR[Ava]KWRSALWRWRLWRVRSWSR-NH2; SMILES CC[C@H](C)[C@H](NC(=O)[C@H](Cc1ccc(O)cc1)NC(C)=O)C(=O)NCC(=O)N[C@@H](CO)C(=O)N[C@@H](CCCNC(=N)N)C(=O)NCCCCC(=O)N[C@@H](CCCCN)C(=O)N[C@@H](Cc1c[nH]c2ccccc12)C(=O)N[C@@H](CCCNC(=N)N)C(=O)N[C@@H](CO)C(=O)N[C@@H](C)C(=O)N[C@@H](CC(C)C)C(=O)N[C@@H](Cc1c[nH]c2ccccc12)C(=O)N[C@@H](CCCNC(=N)N)C(=O)N[C@@H](Cc1c[nH]c2ccccc12)C(=O)N[C@@H](CCCNC(=N)N)C(=O)N[C@@H](CC(C)C)C(=O)N[C@@H](Cc1c[nH]c2ccccc12)C(=O)N[C@@H](CCCNC(=N)N)C(=O)N[C@H](C(=O)N[C@@H](CCCNC(=N)N)C(=O)N[C@@H](CO)C(=O)N[C@@H](Cc1c[nH]c2ccccc12)C(=O)N[C@@H](CO)C(=O)N[C@@H](CCCNC(=N)N)C(N)=O)C(C)C) [ADGN-100-Hydro-3] | – | – | do not significantly improved transfection | do not significantly improved transfection | Tumor/Lung |
